# Laboratory results reported in patent publication US12239713B2, “Degradable polyethylene glycol conjugate” (NOF CORPORATION, priority 2018, dated 2025).
# Where no end group is shown, it is not given here.
# Tested on: blood calcium concentration
# Test: Evaluation of physiological activity of PEGylated salmon calcitonin (blood calcium concentration)
# Format: in vivo, Mouse Balb/c
# Conditions: sCT dose 40 μg/kg, blood at 1, 3, 6, 24 hr, compared to saline (PBS) group, FIG. 10
# Procedure: The method for evaluating the physiological activity of a bio-related substance bonded to a degradable polyethylene glycol derivative is not particular limited. For example, when the bio-related substance is insulin, blood sugar concentration is measured, and when it is calcitonin, blood calcium concentration is measured, by periodically collecting blood from the animal that received administration and measuring the substance in the blood by using an appropriate analytical instrument, and the like, based on which the evaluation can be performed. Specifically, in the case of insulin, a glucose measurement kit is used to monitor a decrease in glucose concentration after administration and, in the case of calcitonin, a decrease in calcium concentration after administration is monitored using a calcium measurement kit, based on which the evaluation can be performed.
# The physiological activities of 4 groups of ME-200GLFG (SEQ ID NO: 4) (L)-200-sCT which is SCT to which degradable polyethylene glycol derivative with a molecular weight of 40,000 is bonded and obtained in Example 16, methoxy PEG 40 kDa-sCT bonded to nondegradable methoxy PEG 40 kDa, unmodified sCT, and saline were comparatively evaluated in animal experiments. […]
substance,measurement,value
salmon calcitonin (CSNLSTCVLGKLSQELHKLQTYPRTNTGSGTP; ends and bridges not checked; cysteine pairing not given here) [Unmodified sCT],calcium concentration in blood (in words),showed an increase in calcium concentration 6 hr after administration
